# Test results published in patent US9790215B2 (FLATLEY DISCOVERY LAB, LLC, priority 2013, dated 2017).
# Target: T1, human ΔF508-CFTR (Homo sapiens, UniProt P13569, DEL508-508)
# T1 construct: expressed in transfected cells
# Experiment: CFTR-YFP High Throughput Assay (YFP halide flux in FRT cells)
# Type: cell-based
# Conditions: FRT cells expressing human ΔF508-CFTR and YFP; Emax normalized to the positive control
# Protocol: Assays for Detecting and Measuring the Effect of Compounds on dF508-CFTR Channels CFRT-YFP High Throughput Assay:
# The following protocol is designed to selectively screen small molecule compounds for F508del CFTR corrector activities in the HTS YFP flux assay. In this protocol, the cells are incubated with testing compounds for 24 hours, washed with PBS, stimulated with forskolin and a standard potentiator, and read on a 384-well HTS plate reader, such as the Hamamatsu FDDD-6000.
# (§1) YFP fluorescence intensity is acquired at high speed before and after iodide buffer is injected to the assay cells. Iodide enters the cells via active CFTR channels in the plasma membrane, and quenches the YFP fluorescence. The rate of fluorescence quenching is proportionally related to the total CFTR activities in the cell membrane. dF508-CFTR corrector accelerates YFP quenching by increasing the number of CFTR molecules in the testing cell plasma membrane.
# This method was initially developed for bench top plate readers (Galietta et al., 2001), and was adapted to the HTS format (Sui et al. Assay Drug Dev. Technol. 2010).
# Fisher Rat Thyroid (FRT) cells stably expressing both human AF508-CFTR and a halide-sensitive yellow fluorescent protein (YFP—H148Q/1152L 25, 22) (Galietta et al., Am. J. Physiol Cell Physiol 281(5), C1734, 2001) were cultured on plastic surface in Coon's modified Ham's F12 medium supplemented with FBS 10%, L-glutamine 2 mM, penicillin 100 U/mL, and streptomycin 100 μg/mL. G418 (0.75-1.0 mg/mL) and zeocin (3.2 ug/mL) were used for selection of FRT cells expressing ΔF508-CFTR and YFP. For primary screening, FRT cells were plated into 384-well black wall, transparent bottom microtiter plates (Costar; Corning Inc.) at a cell density of 20,000-40,000 per well. Test compound was applied to the cells at varying concentrations ranging from […] in either a 2-fold or 3-fold dilution series. Cells were incubated in a cell culture incubator at 37° C. with 5% CO2 for 24-26 h. Assay plates were washed with DPBS media (Thermo, cat# SH30028.02) to remove unbound cells and compound. Stimulation media (25 μL) containing 20 μM Forskolin & 30 μM P3 [6-(Ethyl-phenyl-sulfonyl)-4-oxo-1,4-dihydro-quinoline-3-carboxylic acid 2-methoxy-benzylamide] in Hams F-12 coon's modified media was added to the plate wells and incubated at room temperature for 60-120 min. 25 μL of HEPES-PBS-I buffer (10 mM HEPES, 1 mM MgCl2, 3 mM KCl, 1 mM CaCl2, 150 mM NaI) was then added and fluorescence quench curves (Excitation 500 nm/Emission 540 nm; exposure 136 ms) were immediately recorded on an FDSS-6000 plate reader (Hamamatsu). Quench rates were derived from least squares fitting of the data as described by Sui et al., (2010).
# The following protocol is designed to selectively screen small molecule compounds for F508del CFTR potentiator activities in the HTS YFP flux assay. In this protocol, the cells are incubated at 27 C for 24 hours with homogeneously boosted dF508-CFTR expression in the cell membrane by the low temperature, washed with PBS, stimulated with forskolin, and read on a 384-well HTS plate reader, such as the Hamamatsu FDDD-6000.
# as §1, with “dF508del-CFTR potentiators accelerate” for “dF508-CFTR corrector accelerates”, “increasing” for “increasing the number of”, “activities” for “molecules”
# Fisher Rat Thyroid (FRT) cells stably expressing both human ΔF508-CFTR and a halide-sensitive yellow fluorescent protein (YFP-H148Q/I152L 25, 22) (Galietta et al., Am. J. Physiol Cell Physiol 281(5), C1734, 2001) were cultured on plastic surface in Coon's modified Ham's F12 medium supplemented with FBS 10%, L-glutamine 2 mM, penicillin 100 U/mL, and streptomycin 100 μg/mL. […]
# T1 sequence (P13569 with tags, fused parts or gaps DEL508-508): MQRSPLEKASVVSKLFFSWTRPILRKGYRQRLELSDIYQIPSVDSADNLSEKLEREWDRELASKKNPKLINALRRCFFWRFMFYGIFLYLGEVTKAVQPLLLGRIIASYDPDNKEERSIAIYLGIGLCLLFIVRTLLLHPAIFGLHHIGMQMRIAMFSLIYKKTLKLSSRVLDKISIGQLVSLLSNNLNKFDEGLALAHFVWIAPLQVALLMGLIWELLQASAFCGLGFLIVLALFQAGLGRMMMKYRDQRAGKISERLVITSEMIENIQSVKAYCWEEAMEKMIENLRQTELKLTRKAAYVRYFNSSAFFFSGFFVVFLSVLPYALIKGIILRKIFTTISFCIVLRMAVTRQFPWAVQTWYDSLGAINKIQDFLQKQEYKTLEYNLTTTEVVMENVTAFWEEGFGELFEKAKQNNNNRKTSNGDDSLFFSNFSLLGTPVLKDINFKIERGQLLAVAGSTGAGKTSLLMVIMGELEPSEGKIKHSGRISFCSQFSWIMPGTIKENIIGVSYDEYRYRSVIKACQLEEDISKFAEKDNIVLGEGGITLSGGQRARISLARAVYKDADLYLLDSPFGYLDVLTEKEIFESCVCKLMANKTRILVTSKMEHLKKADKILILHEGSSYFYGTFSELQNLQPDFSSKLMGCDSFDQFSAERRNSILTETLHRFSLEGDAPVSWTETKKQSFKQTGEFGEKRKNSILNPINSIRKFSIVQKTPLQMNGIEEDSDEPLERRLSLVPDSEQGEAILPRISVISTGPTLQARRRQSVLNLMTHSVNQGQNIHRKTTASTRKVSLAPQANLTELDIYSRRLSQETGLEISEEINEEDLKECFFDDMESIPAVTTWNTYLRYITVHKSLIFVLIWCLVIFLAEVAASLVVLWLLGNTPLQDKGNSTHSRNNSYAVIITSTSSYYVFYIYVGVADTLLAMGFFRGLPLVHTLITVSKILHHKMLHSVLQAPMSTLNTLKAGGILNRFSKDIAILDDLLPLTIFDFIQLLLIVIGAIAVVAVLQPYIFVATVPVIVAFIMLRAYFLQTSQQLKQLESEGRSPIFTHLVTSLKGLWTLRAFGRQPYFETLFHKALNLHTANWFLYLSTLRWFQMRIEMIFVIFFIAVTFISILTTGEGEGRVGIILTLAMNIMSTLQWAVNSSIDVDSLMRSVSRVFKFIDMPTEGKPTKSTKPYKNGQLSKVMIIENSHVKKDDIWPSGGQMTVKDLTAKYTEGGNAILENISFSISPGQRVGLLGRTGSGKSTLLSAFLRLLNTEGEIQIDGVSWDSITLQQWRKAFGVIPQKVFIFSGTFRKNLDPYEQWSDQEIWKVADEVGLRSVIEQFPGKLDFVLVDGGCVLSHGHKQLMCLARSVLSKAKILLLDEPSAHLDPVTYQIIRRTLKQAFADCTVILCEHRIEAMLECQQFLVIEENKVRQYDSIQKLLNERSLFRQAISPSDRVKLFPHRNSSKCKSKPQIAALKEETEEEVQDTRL
row,% Efficacy (Emax normalized to the positive control),Compound
1,++ (a range of 80%-30%),"4-(3-(2-(ethyl(4-ethylphenyl)amino)-2-oxoethyl)-4-oxo-3,4-dihydrophthalazin-1-yl)benzamide [Example 11]"

# Same assay, conditions: FRT cells expressing human ΔF508-CFTR and YFP; forskolin stimulated
row,EC50 [µM],Compound
1,< 10,"CCN(C(=O)Cn1ncc2c(c1=O)c1ccccc1n2CC#N)c1ccc2c(c1)OC(F)(F)O2 [Example 93, 2-(5-(cyanomethyl)-1-oxo-1H-pyridazino[4,5-b]indol-2(5H)-yl)-N-(2,2-difluorobenzo[d][1,3]dioxol-5-yl)-N-ethylacetamide]"
2,< 10,"CCN(C(=O)Cn1nc(Cc2cccnc2)c2ccc(C(C)(C)C)cc2c1=O)c1ccc2c(c1)OC(F)(F)O2 [Example 50, 2-(7-(tert-butyl)-1-oxo-4-(pyridin-3-ylmethyl)phthalazin-2(1H)-yl)-N-(2,2-difluorobenzo[d][1,3]dioxol-5-yl)-N-ethylacetamide]"
3,< 10,"CCN(C(=O)Cn1nc(Cc2cccnc2)c2cc(C(C)(C)C)ccc2c1=O)c1ccc2c(c1)OC(F)(F)O2 [Example 49, 2-(6-(tert-butyl)-1-oxo-4-(pyridin-3-ylmethyl)phthalazin-2(1H)-yl)-N-(2,2-difluorobenzo[d][1,3]dioxol-5-yl)-N-ethylacetamide]"
4,< 10,"CCN(C(=O)c1nn(C(C)C)c(=O)c2c1c1ccccc1n2C)c1cccc(Cl)c1 [Example 140, N-(3-chlorophenyl)-N-ethyl-3-isopropyl-5-methyl-4-oxo-4,5-dihydro-3H-pyridazino[4,5-b]indole-1-carboxamide]"
5,< 10,"CCc1ccc(N(CC)C(=O)Cn2nc(Cc3cccnc3)c3ccc(OC)cc3c2=O)cc1 [Example 35, N-ethyl-N-(4-ethylphenyl)-2-(7-methoxy-1-oxo-4-(pyridin-3-ylmethyl)phthalazin-2(1H)-yl)acetamide]"
6,< 10,"COc1ccc2c(-c3cccc(C#N)c3)nn(CC(=O)N(c3ccc4c(c3)OC(F)(F)O4)C3CC3)c(=O)c2c1 [Example 72, 2-(4-(3-cyanophenyl)-7-methoxy-1-oxophthalazin-2(1H)-yl)-N-cyclopropyl-N-(2,2-difluorobenzo[d][1,3]dioxol-5-yl)acetamide]"
7,10 to 20,"CCN(C(=O)c1nn(-c2ccccc2)c(=O)c2c1c1ccccc1n2C)c1ncnc2c1cnn2C [Example 115, N-ethyl-5-methyl-N-(1-methyl-1H-pyrazolo[3,4-d]pyrimidin-4-yl)-4-oxo-3-phenyl-4,5-dihydro-3H-pyridazino[4,5-b]indole-1-carboxamide]"
8,< 10,"CCc1ccc(N(CC)C(=O)Cn2nc(-c3ccc(O)cc3)c3ccccc3c2=O)cc1 [Example 2, N-ethyl-N-(4-ethylphenyl)-2-(4-(4-hydroxyphenyl)-1-oxophthalazin-2(1H)-yl)acetamide]"
9,< 10,"CCN(C(=O)Cn1ncc2c(c1=O)c1ccccc1n2Cc1ccccc1C#N)c1ccc2c(c1)OC(F)(F)O2 [Example 95, 2-(5-(2-cyanobenzyl)-1-oxo-1H-pyridazino[4,5-b]indol-2(5H)-yl)-N-(2,2-difluorobenzo[d][1,3]dioxol-5-yl)-N-ethylacetamide]"
10,< 10,"CCc1ccc(N(CC)C(=O)Cn2nc(Cc3cccnc3)c3c(C)cccc3c2=O)cc1 [Example 31, N-ethyl-N-(4-ethylphenyl)-2-(5-methyl-1-oxo-4-(pyridin-3-ylmethyl)phthalazin-2(1H)-yl)acetamide]"
11,< 10,"CCN(C(=O)c1nn(-c2ccc(C)cn2)c(=O)c2c1c1ccccc1n2C)c1ccccc1 [Example 131, N-ethyl-5-methyl-3-(5-methylpyridin-2-yl)-4-oxo-N-phenyl-4,5-dihydro-3H-pyridazino[4,5-b]indole-1-carboxamide]"
12,< 10,"CCc1ccc(N(CC)C(=O)Cn2nc(Cc3cccnc3)c3ccc(C)cc3c2=O)cc1 [Example 28, N-ethyl-N-(4-ethylphenyl)-2-(7-methyl-1-oxo-4-(pyridin-3-ylmethyl)phthalazin-2(1H)-yl)acetamide]"
13,10 to 20,"4-(3-(2-(ethyl(4-ethylphenyl)amino)-2-oxoethyl)-4-oxo-3,4-dihydrophthalazin-1-yl)benzamide [Example 11]"
14,> 20,"CCN(C(=O)c1nn(-c2ccc(C)cc2)c(=O)c2c1c1ccccc1n2CC#N)c1ccccc1 [Example 150, 5-(cyanomethyl)-N-ethyl-4-oxo-N-phenyl-3-(p-tolyl)-4,5-dihydro-3H-pyridazino[4,5-b]indole-1-carboxamide]"
15,< 10,"CCN(C(=O)Cn1nc(Cc2cccnc2)c2cc(Cl)ccc2c1=O)c1ccc2c(c1)OC(F)(F)O2 [Example 53, 2-(6-chloro-1-oxo-4-(pyridin-3-ylmethyl)phthalazin-2(1H)-yl)-N-(2,2-difluorobenzo[d][1,3]dioxol-5-yl)-N-ethylacetamide]"
16,< 10,"CCN(C(=O)Cn1nc(Cc2cccnc2)c2c(OCCOC)cccc2c1=O)c1ccc2c(c1)OC(F)(F)O2 [Example 62, N-(2,2-difluorobenzo[d][1,3]dioxol-5-yl)-N-ethyl-2-(5-(2-methoxyethoxy)-1-oxo-4-(pyridin-3-ylmethyl)phthalazin-2(1H)-yl)acetamide]"
17,< 10,"CCN(C(=O)Cn1nc(Cc2cccnc2)c2cccc(OCCOC)c2c1=O)c1ccc2c(c1)OC(F)(F)O2 [Example 61, N-(2,2-difluorobenzo[d][1,3]dioxol-5-yl)-N-ethyl-2-(8-(2-methoxyethoxy)-1-oxo-4-(pyridin-3-ylmethyl)phthalazin-2(1H)-yl)acetamide]"
18,< 10,"CCN(C(=O)c1nn(-c2ccccc2)c(=O)c2c1c1ccccc1n2C)c1cccc(F)c1 [Example 126, N-ethyl-N-(3-fluorophenyl)-5-methyl-4-oxo-3-phenyl-4,5-dihydro-3H-pyridazino[4,5-b]indole-1-carboxamide]"
19,< 10,"COc1ccc2c(-c3cccc(C#N)c3)nn(CC(=O)N(C)c3ccc4c(c3)OC(F)(F)O4)c(=O)c2c1 [Example 63, 2-(4-(3-cyanophenyl)-7-methoxy-1-oxophthalazin-2(1H)-yl)-N-(2,2-difluorobenzo[d][1,3]dioxol-5-yl)-N-methylacetamide]"
20,> 20,"CCN(C(=O)c1nn(-c2ccccc2)c(=O)c2c1c1ccccc1n2C)c1ncccn1 [Example 113, N-ethyl-5-methyl-4-oxo-3-phenyl-N-(pyrimidin-2-yl)-4,5-dihydro-3H-pyridazino[4,5-b]indole-1-carboxamide]"
21,< 10,"CCN(C(=O)Cn1nc(Cc2cccnc2)c2c(OC3CCCCC3)cccc2c1=O)c1ccc2c(c1)OC(F)(F)O2 [Example 60, 2-(5-(cyclohexyloxy)-1-oxo-4-(pyridin-3-ylmethyl)phthalazin-2(1H)-yl)-N-(2,2-difluorobenzo[d][1,3]dioxol-5-yl)-N-ethylacetamide]"
22,< 10,"CCc1ccc(N(CC)C(=O)Cn2nc(C(=O)Nc3cc(Cl)ccc3C#N)c3ccccc3c2=O)cc1 [Example 82, N-(5-chloro-2-cyanophenyl)-3-(2-(ethyl(4-ethylphenyl)amino)-2-oxoethyl)-4-oxo-3,4-dihydrophthalazine-1-carboxamide]"
23,> 20,"CCc1ccc(N(CC)C(=O)Cn2nc(Cc3cccnc3)c3ccncc3c2=O)cc1 [Example 41, N-ethyl-N-(4-ethylphenyl)-2-(4-oxo-1-(pyridin-3-ylmethyl)pyrido[3,4-d]pyridazin-3(4H)-yl)acetamide]"
24,> 20,"CCc1ccc(N(CC)C(=O)Cn2nc(-c3cccnc3)c3ccccc3c2=O)cc1 [Example 3, N-ethyl-N-(4-ethylphenyl)-2-(1-oxo-4-(pyridin-3-yl)phthalazin-2(1H)-yl)acetamide]"
